Laboratory results as given in US7148204B2, “Antisense modulation of bcl-x expression” (Isis Pharmaceuticala, Inc., priority 1998, dated 2006).

Experiments:
Assay type in all cases: cell-based, human
CEM cells = assay: Combination index (median-effect) of bcl-x antisense with chemotherapeutic drugs in CEM cells
Text: To determine if synergy existed between the bcl-x and the chemotherapeutic drugs dexamethasone or doxorubicin, the median-effect principle of Chou (“The median-effect principle and the combination index for quantification of synergism and antagonism. In Synergism and Antagonism in Chemotherapy, T.-C. Chou and D. Rideout, eds., Academic Press, New York, pp. 61–102) was used to determine dose-effect parameters for the drugs individually and for the combinations of bcl-x antisense plus dexamethasone or bcl-x antisense plus doxorubicin. This method analyzes the shape of the drug dose-response curves for each drug, combination of drugs and quantitates synergism/antagonism at different concentrations. Median effect computer software (CalcuSyn for Windows, Biosoft, Ferguson, Mo.) was used to generate the combination index (CI), where a CI value of <1, =1, >1 indicates synergism (i.e., the effect of drug combination is greater than anticipated from the additive effect of the individual agents), additive effect, and antagonism, respectively.
Treatment of CEM cells with bcl-x antisense oligonucleotide makes the cells more sensitive to killing by doxorubicin or dexamethasone (FIGS. 9A–B). These, or similar drugs, are used frequently for acute lymphocytic leukemia treatment. The use of any of these therapeutic agents in combination with one or more antisense oligonucleotides to bcl-x is within the scope of the present invention. For these experiments, the CEM cells were electroporated with either the bcl-x antisense or control oligonucleotides, cultured for one day, then treated with the indicated concentrations of drug. […] A CI of <0.3 is classified as a strong degree of synergism, and 0.3 to 0.7 is classified as synergism. […] For the doses tested of doxorubicin, the CI ranged from 0.7 to 1.3.

bcl-xl protein = assay: Immunoblot of bcl-xl protein in CEM cells
Experimental: Postnuclear detergent lysates were prepared as described by Reed et al. (Cancer Res., 1991, 51, 6529–6538), and the protein concentration was determined using a Bradford method protein assay kit (Bio-Rad, Hercules, Calif.). Protein (20 μg) was loaded in each lane, followed by electrophoresis on a 12% sodium dodecyl sulfate-polyacrylamide gel, followed by immunoblotting (Winston et al., 1993). The primary antibody was a 0.4 μg/ml dilution of the mouse monoclonal anti-human bcl-2 (clone 124, Dako, Carpinteria, Calif.), a 4.0 μg/ml dilution of the rabbit polyclonal anti-human bcl-xs/l (Dako), or a 0.3 μg/ml dilution of rabbit polyclonal anti-human Bax (N-20, Santa Cruz Biotechnology, Santa Cruz, Calif.). For development and STORM fluorescent imaging, the secondary antibody was peroxidase-conjugated sheep anti-mouse or donkey anti-rabbit (Amersham, Little Chalfort, UK). Chemiluminescence imaging and quantification were preformed using the STORM instrument and ImageQuant software (Molecular Dynamics, Sunnyvale, Calif.).

bcl-x protein = assay: Western blot analysis of bcl-x protein levels in A549
Experimental: Western blot analysis (immunoblot analysis) was carried out using standard methods. Generally, cells were harvested 16–20 hours after oligonucleotide treatment, washed once with PBS, suspended in Laemmli buffer (100 μl/well), boiled for 5 minutes and loaded on a 16% SDS-PAGE gel. Gels were run for 1.5 hours at 150 V, and transferred to membrane for western blotting. Appropriate primary antibody directed to bcl-x was used, with a radiolabelled or fluorescently labeled secondary antibody directed against the primary antibody species. Bands were visualized using a PHOSPHORIMAGER™ (Molecular Dynamics, Sunnyvale Calif.).
ISIS 15999 and 16009 were tested for the ability to reduce bcl-x protein levels in A549.

TCCCGGTTGCTCTGAGACAT (5-10-5 2'-MOE gapmer, phosphorothioate, further chemistry not given here) [ISIS 15999]
combination index (CI) (CEM cells; with dexamethasone, three highest doses): < 0.3 | combination index (CI) (CEM cells; with dexamethasone, two lower doses): 0.3 to 0.4 | combination index (CI) (CEM cells; with doxorubicin, doses tested): 0.7 to 1.3 | level of bcl-xl protein (bcl-xl protein): dose dependent decrease | bcl-x protein levels (bcl-x protein): reduce bcl-x protein levels in a dose-dependent manner
